From patent US20170007615A1, “Antibacterial Compounds” (priority 2014, published 2017)
≈ marks a conversion by molar mass, not a printed value. Marks after values point to notes of the source that are not given here. Positions of bridges follow the written chain, without caps; N, C: chain ends. Non-standard residues stand in square brackets, D forms with d. Residues, ends and D or L forms follow the SMILES beside them. Dab = NCC[C@H](N)C(=O)O

Key:
[1] = test system: E. coli (ATCC 25922); settings: for MIC of Compound (μg/ml) in the presence of PMBN (128 μg/ml): Table 1, (b) No effect
[2] = test system: A. baumannii (ATCC 19606); settings: for MIC of Compound (μg/ml) in the presence of PMBN (128 μg/ml): Table 4
[3] = test system: E. coli (ATCC 25922); assay: microbe, parasite or virus in culture; settings: Escherichia coli, ATCC25922, read-out: MIC Compound alone, Table 1
[4] = test system: A. baumannii (ATCC 19606); assay: microbe, parasite or virus in culture; settings: Acinetobacter baumannii, ATCC19606, read-out: MIC Compound alone
[5] = test system: S. aureus (ATCC 29213); assay: Antibacterial activity (MIC), Gram-positive type strain; type: cell-based, Staphylococcus aureus; settings: Staphylococcus aureus, ATCC29213; Table 13
[6] = test system: E. faecalis (ATCC 29212); assay: as above; type: cell-based, Enteroccocus faecalis; settings: Enterococcus faecalis, ATCC29212; Table 13
[7] = test system: H. influenzae (ATCC 49247); assay: Antibacterial activity (MIC), Gram-negative type strain; type: cell-based, Haemophilus influenzae; settings: Haemophilus influenzae, ATCC49247; Table 13
[8] = test system: N. gonorrheae (ATCC 49226); assay: as above; type: cell-based, Neisseria gonorrhoeae; settings: Neisseria gonorrhoeae, ATCC49226; Table 13
[9] = test system: E. coli (NDM-1; CTX-M15); assay: Septicaemia infection model, survival; settings: two doses
[10] = test system: P. aeruginosa (ATCC 27853); settings: ATCC 27853
[11] = test system: E. cloaceae (ATCC 13047)
[12] = test system: F. philomiragia (ATCC 25015); settings: Table 9; (a) No measurable antibacterial activity
[13] = test system: B. cepacia (ATCC 25416); assay: Antibacterial activity (MIC), alone and with colistin; type: cell-based, Burkholderia cepacia; settings: Table 8; (a) No measurable antibacterial activity
[14] = test system: K. pneumonia colistin-resistant strains; assay: microbe, parasite or virus in culture; type: cell-based; settings: K. pneumonia strains raised by selection with 2 or 4 μg/mL of colistin on MH agar
[15] = test system: E. coli colistin-resistant strains; assay: microbe, parasite or virus in culture; type: cell-based; settings: E. coli strains raised by selection with 2 or 4 μg/mL of colistin on MH agar
[16] = test system: A. baumannii colistin-resistant strains; assay: microbe, parasite or virus in culture; type: cell-based; settings: A. baumannii strains raised by selection with 2 or 4 μg/mL of colistin on MH agar

CCNC(=O)Nc1nc2cc(-c3cnc(C(C)(O)CO)nc3)cc(-c3ncc(C)cn3)c2s1 (centres unmarked) [Compound A-8, 1-[5-[2-(1,2-Dihydroxy-1-methyl-ethyl)pyrimidin-5-yl]-7-(5-methylpyrimidin-2-yl)-1,3-benzothiazol-2-yl]-3-ethyl-urea]
MIC of Compound (μg/ml) in the presence of PMBN (128 μg/ml) [1]: 0.06 µg/mL | MIC of Compound (μg/ml) in the presence of PMBN (128 μg/ml) [2]: 0.25 µg/mL | MIC [3]: 4 µg/mL (≈ 8.59 µM) | MIC [4]: 2 µg/mL (≈ 4.3 µM)

CCNC(=O)Nc1nc2cc(-c3cnc(NS(=O)(=O)C4CCCC4)nc3)cc(-c3ccc(C)cn3)c2s1 [Compound A-21, 1-[5-[2-(cyclopentylsulfonylamino)pyrimidin-5-yl]-7-(5-methyl-2-pyridyl)-1,3-benzothiazol-2-yl]-3-ethyl-urea]
MIC [5]: ≤ 0.002 µg/mL | MIC [6]: ≤ 0.008 µg/mL | MIC [7]: 0.03 µg/mL (≈ 0.0558 µM) | MIC [8]: ≤ 0.008 µg/mL | MIC of Compound (μg/ml) in the presence of PMBN (128 μg/ml) [2]: 0.03 µg/mL | MIC [4]: 1 µg/mL (≈ 1.86 µM)

CCNC(=O)Nc1nc2cc(-c3ccn(C)c(=O)c3)cc(-c3ccccn3)c2s1 [Example 51 (WO2007/148093)]
MIC of Compound (μg/ml) in the presence of PMBN (128 μg/ml) [1]: 0.06 µg/mL | MIC of Compound (μg/ml) in the presence of PMBN (128 μg/ml) [2]: 0.5 µg/mL | MIC [3]: 16 µg/mL (≈ 39.5 µM) | MIC [4]: 4 µg/mL (≈ 9.86 µM)

CCNC(=O)Nc1nc2cc(-c3cnc([C@@H](C)OP(=O)(O)O)nc3)cc(-c3ccccn3)c2s1 [Example 152 of WO2013/138860, [(1R)-1-[5-[2-(ethylcarbamoylamino)-7-(2-pyridyl)-1,3-benzothiazol-5-yl]pyrimidin-2-yl]ethyl] dihydrogen phosphate]
survival at the end of 5 days ([9]; 100 mg/kg IV alone): No mice survived

CC(C)C[C@@H]1NC(=O)[C@@H](Cc2ccccc2)NC(=O)[C@H](CCN)NC(=O)[C@@H](NC(=O)[C@H](CCN)NC(=O)[C@@H](N)[C@@H](C)O)CCNC(=O)[C@H]([C@@H](C)O)NC(=O)[C@H](CCN)NC(=O)[C@H](CCN)NC1=O [PMBN, Polymyxin B nonapeptide, reference compound] (H-T[Dab][Dab][Dab][dF]L[Dab][Dab]T; lactam 3-C (inferred); N-terminus assumed)
MIC PMBN alone ([1]; ATCC 25922): >128^(a) μg/ml | MIC PMBN alone ([2]; ATCC 19606): >128^(a) μg/ml | MIC PMBN alone [10]: >128^(a) μg/ml | MIC PMBN alone ([11]; ATCC 13047): >128^(a) μg/ml | MIC PMBN alone [12]: >32^(a) μg/ml | survival at the end of 5 days ([9]; PMBN 50 mg/kg SC alone): No mice survived

colistin [reference compound]
MIC colistin alone [13]: >64^(a) μg/ml | MIC (colistin) [14]: ^(a)Raised by selection with 2 or 4 μg/mL of colistin on MH agar: MIC (colistin) = 16-32 μg/mL | MIC (colistin) [15]: ^(a)Raised by selection with 2 or 4 μg/mL of colistin on MH agar: MIC (colistin) = 16-32 μg/mL | MIC (colistin) [16]: ^(a)Raised by selection with 2 or 4 μg/mL of colistin on MH agar: MIC (colistin) = 16-32 μg/mL | MIC colistin alone ([1]; Table 2): 2 µg/mL | MIC Compound alone ([1]; Table 12): 4 µg/mL | MIC of Compound (μg/ml) in the presence of PMBN (32 μg/ml) ([1]; Table 12, (b) No significant effect): 4^(b) μg/ml | MIC colistin alone ([11]; Table 7, (a) No measurable antibacterial activity): >64^(a) μg/ml
